Assay: release rates of active agents from core-membrane implants
Assay type: physicochemical
Conditions: for release rate over time: Example 4 implant (FIG. 12): membrane PDMS/trifluoropropyl modified PDMS, fluoro-content 55 wt-%, thickness 0.25 mm
Source text: The implant structure was as disclosed in FIG. 2. The first part of the core consisted of PDMS comprising levonorgestrel and the length was 35 mm. The second part of the core consisted of PEO-PDMS having 50% of PEO, comprising estradiol, and the length was 8 mm.
The core parts were encased in a membrane consisting of PEO-PDMS in a ratio of 10:90. The thickness of the membrane was 0.2 mm and the outer diameter of the implant 2.48 mm.
The implant structure was as disclosed in FIG. 2. The first part of the core consisted of PEO-PDMS in a ratio of 50:50 comprising compound 1 and the length was 34 mm. The second part of the core consisted of PEO-PDMS having 50% of PEO, comprising estradiol, and the length was 6 mm.
The core parts were encased in a membrane consisting of PEO-PDMS in a ratio of 20:80. The thickness of the membrane was 0.2 mm and the outer diameter of the implant 2.48 mm.
The implant structure was as disclosed in FIG. 2. The first part of the core consisted of Pt-catalysed PDMS comprising 60 weight-% MENT having a length of 44 mm and a diameter of 3.0 mm. The second part of the core consisted of peroxide-catalysed PDMS comprising 50 weight-% gestodene having a length of 12 mm and a diameter of 3.0 mm.
Both core parts were encapsulated by a membrane consisting of a mixture of PDMS and trifluoropropyl modified PDMS. The fluoro-content in the membrane varied from 55 weight-% to 75 weight-%. The thickness of the membrane was 0.25 or 0.35 mm and thus the outer diameter of the implant 3.5 or 3.7 mm, respectively.
MENT is represented by the trinagles and gestodene by the lozenges.

| SMILES | release rate over time | release rate of compound 1 versus target (Example 2 implant (FIG. 10): PEO-PDMS 50:50 core part 34 mm, membrane PEO-PDMS 20:80, 0.2 mm, target 50 μg/day) | release rate of gestodene, membrane thickness 0.25 mm compared with 0.35 mm (Example 4 implant (FIG. 14): membrane fluoro-content 60 wt-%) |
| --- | --- | --- | --- |
| C[C@@H]1CC2=CC(=O)CC[C@@H]2[C@H]2CC[C@]3(C)[C@@H](O)CC[C@H]3[C@@H]21 [MENT, 7-α-methyl-19-nortestosterone] | essentially constant over time |  |  |
| CC(=O)c1ccc(C2C[C@@]3(C)[C@@H](CCC3(O)C(F)(F)C(F)(F)F)[C@@H]3CCC4=CC(=O)CCC4=C23)cc1 (stereo partly shown) [compound 1, 11-(4-Acetylphenyl)-17-hydroxy-17-(1,1,2,2,2-pentafluoroethyl)estra-4,9-dien-3-one] |  | target release rates were obtained |  |
| C#C[C@]1(O)C=C[C@H]2[C@@H]3CCC4=CC(=O)CC[C@@H]4[C@H]3CC[C@@]21CC [gestodene] | essentially constant over time |  | higher |

Reference: patent US20040247674A1, “Drug delivery system” (priority 2001, published 2004)
